Assay results as given in PubChem BioAssay AID540316 (Broad Institute, 2011).
Results filed as inconclusive are left out. The source made the active and inactive calls.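 The calls were made as follows: active = compounds lowering viability whose fitted half-maximal concentration is at most tenfold the top tested dose; inconclusive = flat curve with viability loss of 30 to 70%, or bad fit; inactive = the rest.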

Assays:
[1] = cytotoxicity toward BJeH engineered cells – cell-based, plate reader, dry powder, set 4, counter-screen for Ras selective lethality project, dose response (AID 540316); conditions: BJeH fibroblasts viability, Alamar Blue fluorescence, 48 h; at 48 µM (top of the series)
[2] = tested on: BJeH fibroblasts viability, Alamar Blue fluorescence, 48 h; test: as above

Row | Compound | activity change, negative = fewer viable cells [1] | AC50 [2]
1 | Cc1onc(C(=O)NCCNC(c2ccccc2)c2ccccc2)c1[N+](=O)[O-] | -11.9% (inactive) | 
2 | O=C(c1ccc([N+](=O)[O-])o1)N1CCN(C(c2ccc(F)cc2)c2ccc(F)cc2)CC1 |  | 14.2 µM
3 | CCOc1ccccc1-n1c(C(C)N2CCN(C(=O)COc3ccc(Cl)cc3)CC2)nc2ccccc2c1=O (stereo not given) |  | 7.93 µM
4 | Cc1onc(C(=O)N2CCCN(C(c3ccccc3)c3ccccc3)CC2)c1[N+](=O)[O-] | -10.7% (inactive) | 
5 | Cc1onc(C(=O)N2CCN(Cc3ccccc3)CC2)c1[N+](=O)[O-] | -0.245% (inactive) | 
6 | Cc1onc(CC(=O)N2CCN(C(c3ccc(F)cc3)c3ccc(F)cc3)CC2)c1[N+](=O)[O-] | -13.5% (inactive) | 
7 | Cc1onc(C(=O)N2CCN(C(c3ccccc3)c3ccccc3)CC2)c1[N+](=O)[O-] | -11.7% (inactive) | 
8 | COC(=O)c1ccc([C@@H]2c3[nH]c4ccccc4c3C[C@@H](C(=O)OC)N2C(=O)CCl)cc1 |  | 2.68 µM
9 | O=C(NCCNC(c1ccccc1)c1ccccc1)c1ccc([N+](=O)[O-])o1 |  | 5.31 µM
10 | COc1ccc(C(c2ccc(OC)cc2)N2CCN(C(=O)c3ccc([N+](=O)[O-])o3)CC2)cc1 |  | 6.76 µM
